Reference: PMC9628810 (Science (New York, N.Y.), 2022)

Columns and labels:
[1] = molecular target: T1, N-NLP7(1–581) (GST-N-NLP7-8xHIS) (Arabidopsis thaliana, UniProt Q84TH9); assay: microscale thermophoresis; type: binding
T1 sequence (Q84TH9 1-581): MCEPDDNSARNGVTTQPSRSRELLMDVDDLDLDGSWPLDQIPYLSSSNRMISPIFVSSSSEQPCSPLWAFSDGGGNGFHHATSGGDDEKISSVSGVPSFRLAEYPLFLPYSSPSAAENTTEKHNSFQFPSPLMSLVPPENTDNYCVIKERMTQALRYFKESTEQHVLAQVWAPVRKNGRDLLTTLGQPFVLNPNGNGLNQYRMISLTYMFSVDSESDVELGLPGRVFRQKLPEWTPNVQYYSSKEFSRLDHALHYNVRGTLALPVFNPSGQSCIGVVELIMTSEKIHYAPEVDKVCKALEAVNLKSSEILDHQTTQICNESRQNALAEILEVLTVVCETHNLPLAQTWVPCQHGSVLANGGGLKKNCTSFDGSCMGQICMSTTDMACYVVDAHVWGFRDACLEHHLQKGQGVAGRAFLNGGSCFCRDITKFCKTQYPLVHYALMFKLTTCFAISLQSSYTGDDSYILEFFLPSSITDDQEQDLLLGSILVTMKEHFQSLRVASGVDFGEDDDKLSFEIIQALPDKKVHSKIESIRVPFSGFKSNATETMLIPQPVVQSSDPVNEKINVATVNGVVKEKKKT

NLP7 (GST-NLP7-8xHIS) = molecular target: T2, NLP7 (GST-NLP7-8xHIS) (Arabidopsis thaliana, UniProt Q84TH9); assay: microscale thermophoresis; type: binding
T2 sequence (Q84TH9 1-959): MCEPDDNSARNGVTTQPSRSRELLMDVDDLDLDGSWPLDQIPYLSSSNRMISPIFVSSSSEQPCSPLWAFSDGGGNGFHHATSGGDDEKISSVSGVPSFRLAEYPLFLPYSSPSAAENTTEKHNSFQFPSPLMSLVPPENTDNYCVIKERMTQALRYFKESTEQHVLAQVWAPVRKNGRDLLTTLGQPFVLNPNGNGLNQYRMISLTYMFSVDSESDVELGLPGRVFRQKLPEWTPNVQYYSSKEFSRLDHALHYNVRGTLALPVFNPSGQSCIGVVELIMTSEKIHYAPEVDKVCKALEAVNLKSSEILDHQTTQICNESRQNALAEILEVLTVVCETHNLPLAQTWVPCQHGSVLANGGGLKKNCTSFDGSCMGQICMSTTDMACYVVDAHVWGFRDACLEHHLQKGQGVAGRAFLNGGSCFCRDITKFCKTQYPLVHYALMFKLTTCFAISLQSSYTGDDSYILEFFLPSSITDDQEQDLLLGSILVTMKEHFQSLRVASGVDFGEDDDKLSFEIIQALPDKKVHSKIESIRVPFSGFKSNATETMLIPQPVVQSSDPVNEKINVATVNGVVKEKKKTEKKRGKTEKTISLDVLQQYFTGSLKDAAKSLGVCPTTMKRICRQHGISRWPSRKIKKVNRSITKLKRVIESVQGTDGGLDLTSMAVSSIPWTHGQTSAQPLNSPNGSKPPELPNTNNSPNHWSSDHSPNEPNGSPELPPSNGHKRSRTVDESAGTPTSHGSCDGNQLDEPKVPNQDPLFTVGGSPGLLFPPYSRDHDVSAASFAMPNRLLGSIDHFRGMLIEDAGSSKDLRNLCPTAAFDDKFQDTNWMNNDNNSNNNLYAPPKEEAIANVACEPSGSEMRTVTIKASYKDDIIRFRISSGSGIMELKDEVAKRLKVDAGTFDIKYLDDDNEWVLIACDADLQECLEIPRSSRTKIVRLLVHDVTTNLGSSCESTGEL

Compound `O=[N+]([O-])O` [nitrate] has a Kd [1] of 86 ± 38 µM and a Kd (NLP7 (GST-NLP7-8xHIS)) of 52 ± 20 µM.
